Results as given in patent US7666393B2, “Methods for assessing antiangiogenic agents” (Children's Medical Center Corporation, priority 2001, dated 2010).

Assays:
[1] = system: EPC; assay: VEGF-induced mobilization of EPC in mice (PBMNC colonies from peripheral blood); format: in vivo
Procedure: PBMNC from 1 ml of peripheral mouse blood were plated in medium containing bFGF and VEGF (FIG. 2A). […] Similar results were obtained with peripheral blood from mice, which were injected with microencapsulated cells producing endostatin (approximately 0.5×10^6 cells per mice) (Joki et al., 2001) (FIG. 2D). In order to elevate the number of EPC in the blood, the mice received injection of 0.5×10^6 cells producing VEGF, that were micro-encapsulated similar to the endostatin producing cells (FIGS. 2B-C).
PBMNC from VEGF injected mice were further analyzed by immunostaining in order to confirm their identity. Blood-derived cells were stained positively for VEGF-R2 (Flk-1), CD-31, BS-1 (a lectin specifically expressed on mouse EC) and for von-Wilerband factor (F.VIII). Only a few cells were stained positively for CD-14, a marker for macrophages. […] Furthermore, this in vivo effect of endostatin can be seen only if the starting number of EPC in the blood is high as a result of the VEGF treatment.

[2] = system: CAM vascularization; conditions: in vivo; cited from earlier work
[3] = system: Human peripheral blood mononuclear cells (PBMNC); assay: In vitro formation of colonies from human peripheral blood mononuclear cells (EPC differentiation assay); format: cell-based; conditions: medium with bFGF and VEGF, 6 days culture after addition
Procedure: Human peripheral blood mononuclear cells (PBMNC) were purified over Ficoll gradient and seeded onto non-treated plastic dish for 24 hr. Non. adherent cells were, transferred to a gelatin coated 48 well dish in medium containing basic fibroblast growth factor (BFGF) and VEGF. Angiostatin and endostatin were added to the medium 24 hours later and cells were cultured for additional 6 days. At the end of the experiment the colonies were fixed with ethanol, stained with methyl-methylene blue and counted (FIGS. 1A-C). […] There was no difference in the effects of angiostatin between the two concentrations used. […] Taken together, it appears that angiostatin and endostatin block the differentiation of EC from their circulating progenitors.

[4] = system: EPC; assay: EPC in peripheral blood of cancer patients undergoing endostatin treatment (P1H12-positive cells); format: in vivo, human; conditions: for percentage of EPC: about 240 mg/m^3 daily
Procedure: Recombinant human Endostatin (rhEndostatin, Endostatin™ EntreMed, Inc, Rockville, Md.) is under investigation in clinical Phase I trials in patients with advanced, refractory cancers. Twenty eight patients, age ranging from 28 to 72 years old with various types of cancer such as breast, colorectal and soft tissue sarcoma, participated in a phase I clinical trial at the Dana Farber Cancer Institute in Boston. We obtained blood samples from 7 patients that were treated with endostatin. The response of EPC to rhEndostatin differed between patients in accordance with differing clinical courses. The first group consisted of 4 patients with slowly progressive, stable or decreasing cancers that were followed with samples for 130-250 days (FIG. 6A). The second group consisted of patients with faster progressing cancer unaffected by rhEndostatin administration. This group was followed during 30 days of endostatin treatment (FIG. 6B). PBMNC were purified from the blood over “Ficoll” gradient and cells corresponding to 0.5 or 1 ml of blood were placed in a “Cytospin” tube. The cells were loaded onto glass slides, fixed and immuno-stained with FITC-conjugated P1H12 antibodies. Cell nuclei were stained with DAPI. The number of P1H12-positive cells was calculated as percentage of total PBMNC. EPC percentage varied among patients and was between 1.8-3.5%. […] Patients from the first group were initially administered with daily intravenous injections of 60 mg/m^3 endostatin. […] The administration of endostatin was later changed to continuous infusion (60 mg/m^3/day).
The second group of patients were at the beginning of endostatin treatment (daily IVB injections of about to 240 mg/m^3). The initial amount of EPC in this group varied between 0.4-1.6%. […] In these patients only 2-3 measurements of EPC were available because of rapid disease progression. […] On the other hand, minor response or stable disease progression upon endostatin administration was associated with reduction in the number EPC in peripheral blood, whereas an increase in EPC was associated with rapid disease progression.

[5] = system: EPC; assay: Tumor-induced mobilization of EPC in SCID mice bearing HS-VF tumors; format: in vivo; conditions: 7 days
Procedure: Many tumors secrete high levels of VEGF that can promote differentiation and mobilization of EPC. To test the effects of endostatin on tumor-induced mobilization of EPC, SCID mice (5 per group) were first injected subcutaneously with human pancreatic tumor cells (HS-VF cell, 2×10^6 cells/mouse) overexpressing VEGF. Eight days later half of the mice were implanted with “Alzet” osmotic pumps releasing murine endostatin (8-12 mg/kg/day) and the other half with pumps releasing saline. SCID mice that were not injected with tumor cells or pumps (normal SCID mice) served as a control to measure the number of EPC. After seven days, mice were sacrificed and blood samples were collected.
PBMNC were purified over “Ficoll” gradient and cells corresponding to 0.5 ml of blood were placed in a “Cytospin” tube. The cells were loaded onto glass slides, fixed and immunostained with MECA-32 antibodies, that specifically detect murine EC. The staining was developed with FITC-labeled (green) secondary antibodies and cell nuclei were stained with DAPI (blue). The proportion of MECA-32 positive cells from total PBMNC was calculated and shown in the graph of FIG. 4A.
Control mice had 0.29% MECA-32 positive cells in the PBMNC preparation. […]

Q: With endostatin as the molecule, how does the “colonies from PBMNC of 1 ml peripheral mouse blood” value ([1]; mice injected with microencapsulated cells producing endostatin only (approx. 0.5×10^6 cells per mouse), 7 days in culture) read?
A: no viable cell-containing colonies could be detected

Q: And the “colonies from PBMNC of peripheral mouse blood” value ([1]; mice received VEGF producing cells together with endostatin producing cells (0.5×10^6 alginate encapsulated cells of each))?
A: only a few, small and round cell-containing colonies

Q: What about the CAM vascularization [2] of the same molecule?
A: greatly inhibit

Q: And the “formation of PBMNC colonies” value ([3]; 2 μg/ml)?
A: the number of colonies grew but the colonies were small and contained small round cells

Q: And the “formation of PBMNC colonies” value ([3]; 10 μg/ml)?
A: significantly lower than the control experiment

Q: And the “number of EPC (P1H12-positive cells, percentage of total PBMNC)” value ([4]; one patient of the first group, continuous infusion 60 mg/m^3/day, 130 days)?
A: not increased

Q: And the “percentage of EPC” value ([4]; patient 13, faster progressing cancer, increased from 0.4% during 15 days of administration)?
A: 3.8%

Q: What about the “percentage of EPC” value ([4]; patient #11, faster progressing cancer, increased from 1.6% during 30 days of administration) of the same molecule?
A: 5.3%

Q: And the EPC percentage ([4]; patient #12, faster progressing cancer, daily IVB injections of about 240 mg/m^3, first 15 days)?
A: did not change significantly

Q: What about the “number of EPC (P1H12-positive cells, percentage of total PBMNC)” value ([4]; patients #1, #2 and #3, continuous infusion 60 mg/m^3/day) of the same molecule?
A: further lowered

Q: And the “number of EPC (P1H12-positive cells, percentage of total PBMNC)” value ([4]; patients #2 and #3, slowly progressing cancer, daily intravenous injections of 60 mg/m^3)?
A: gradually decreased

Q: What about the “proportion of MECA-32 positive cells from total PBMNC” value ([5]; Alzet pumps releasing murine endostatin 8-12 mg/kg/day, saline pumps approx. 2.5%, control mice 0.29%) of the same molecule?
A: 0.67%

Q: What about the “gated Flk-1 positive cells in the peripheral blood (FACS)” value ([5]; pumps releasing murine endostatin 8-12 mg/kg/day, saline 0.625+/−0.19%, normal mice 0.22+/−0.04%) of the same molecule?
A: 0.305+/−0.05%

Q: For `CO[C@@H]1[C@H](OC(=O)NC(=O)CCl)CC[C@]2(CO2)[C@H]1[C@@]1(C)O[C@@H]1CC=C(C)C` [TNP-470, reference compound], which CAM vascularization [2] is on record?
A: greatly inhibit

Q: With “vascular endothelial growth factor [VEGF, reference compound]” as the molecule, how does the “colonies from PBMNC of peripheral mouse blood” value ([1]; mice injected with 0.5×10^6 microencapsulated cells producing VEGF) read?
A: Large number of colonies

Q: Which results are given for angiostatin?
A: CAM vascularization [2]: greatly inhibit; formation of PBMNC colonies ([3]; 2 μg/ml): completely blocked; formation of PBMNC colonies ([3]; 10 μg/ml): completely blocked
